Assay results reported in patent US20210070731A1, “TRICYCLIC KINASE INHIBITORS AND USE THEREOF” (priority 2019, published 2021).
Structures can show the parent of a compound that is named as a salt.

Tests used:
Type in all cases: biochemical
Details in all cases: 100 uM ATP, 3 hr incubation, four-parameter fit
NUAK1 = molecular target: T1, NUAK1 (Homo sapiens, UniProt O60285); assay: Phosphorylation assay ([γ-32P]-ATP, P81 paper), NUAK1
T1 construct: purchased SignalChem
T1 sequence (O60285 1-661): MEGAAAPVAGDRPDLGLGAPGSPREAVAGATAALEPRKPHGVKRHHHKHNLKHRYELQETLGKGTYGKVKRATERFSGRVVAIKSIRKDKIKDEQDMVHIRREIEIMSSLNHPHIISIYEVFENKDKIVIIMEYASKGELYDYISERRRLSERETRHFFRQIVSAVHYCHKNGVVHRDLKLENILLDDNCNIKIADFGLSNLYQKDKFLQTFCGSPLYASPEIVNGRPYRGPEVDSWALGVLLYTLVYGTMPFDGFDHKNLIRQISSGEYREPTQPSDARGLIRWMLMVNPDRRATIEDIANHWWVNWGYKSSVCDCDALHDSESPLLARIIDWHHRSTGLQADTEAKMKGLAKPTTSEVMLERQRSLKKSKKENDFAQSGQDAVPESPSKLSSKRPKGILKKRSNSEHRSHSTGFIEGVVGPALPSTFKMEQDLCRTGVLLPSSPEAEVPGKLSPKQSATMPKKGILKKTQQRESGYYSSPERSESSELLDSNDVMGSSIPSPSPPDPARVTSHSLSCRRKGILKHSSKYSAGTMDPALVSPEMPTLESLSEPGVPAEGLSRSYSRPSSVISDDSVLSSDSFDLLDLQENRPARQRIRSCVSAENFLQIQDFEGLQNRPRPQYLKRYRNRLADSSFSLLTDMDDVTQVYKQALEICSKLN
Source text: (§1) Kinase activity and inhibition can be measured using binding assays as well as phosphorylation assays. In the binding assays, e.g. KinaseSeeker (Luceome Biotechnologies, Tucson, Ariz.) or Kinomescan (Eurofins), the competitive displacement of a kinase active site binding probe by a compound is detected and serves as a measure of compound inhibition. In phosphorylation assays, e.g. radioactivity assays or ADP-Glo (Promega) assays, the phosphorylation of a peptide or protein substrate is used to evaluate enzyme activity, and the reduction of phosphorylation in presence of a compounds serves as a measure of compound inhibition. The inhibitor compounds described herein are screened in the following manner.
(§2) For phosphorylation assays, 30 ng of the active kinase (SignalChem) in kinase assay buffer was incubated with either inhibitor in DMSO or DMSO (no inhibitor control). Reaction was started by the addition of 10 mM magnesium sulfate, 100 uM [γ-^32P]-ATP and appropriate concentration of the relevant peptide substrate. After 3 hr incubation, the reaction was terminated by spotting 25 μl of the reaction mixture onto P81 paper strips. The paper strips were air dried, washed three times with 0.85% phosphoric acid and finally with acetone. The P81 paper was immersed in 10 mL of scintillation cocktail, and the radioactive counts were measured. For dose dependent curves, kinases were treated at varying concentrations of the compound in activity assays and IC50 values were determined using a four-parameter fit. The IC50 values against a select set of kinases is given below.

NUAK2 = molecular target: T2, NUAK2 (Homo sapiens, UniProt Q9H093); assay: Phosphorylation assay ([γ-32P]-ATP, P81 paper), NUAK2
T2 construct: purchased SignalChem
T2 sequence (Q9H093 1-628): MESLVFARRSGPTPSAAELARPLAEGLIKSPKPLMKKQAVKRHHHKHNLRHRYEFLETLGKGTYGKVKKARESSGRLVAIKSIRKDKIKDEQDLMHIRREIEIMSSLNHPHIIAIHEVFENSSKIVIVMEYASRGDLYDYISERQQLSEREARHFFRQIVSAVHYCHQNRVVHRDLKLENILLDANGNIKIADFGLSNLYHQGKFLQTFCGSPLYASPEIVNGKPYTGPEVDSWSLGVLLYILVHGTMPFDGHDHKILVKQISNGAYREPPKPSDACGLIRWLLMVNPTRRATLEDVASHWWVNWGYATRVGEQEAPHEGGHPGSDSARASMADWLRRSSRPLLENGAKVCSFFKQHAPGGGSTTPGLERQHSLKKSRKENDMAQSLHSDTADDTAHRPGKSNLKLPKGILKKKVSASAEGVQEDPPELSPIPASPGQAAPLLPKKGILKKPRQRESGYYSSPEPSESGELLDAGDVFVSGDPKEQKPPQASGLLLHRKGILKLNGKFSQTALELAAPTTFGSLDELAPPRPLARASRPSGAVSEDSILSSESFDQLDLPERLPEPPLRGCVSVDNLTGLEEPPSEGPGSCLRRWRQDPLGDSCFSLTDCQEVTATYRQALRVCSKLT
Source text: as §1, §2

SIK2 = molecular target: T3, SIK2 (Homo sapiens, UniProt Q9H0K1); assay: Phosphorylation assay ([γ-32P]-ATP, P81 paper), SIK2
T3 construct: purchased SignalChem
T3 sequence (Q9H0K1 whole entry): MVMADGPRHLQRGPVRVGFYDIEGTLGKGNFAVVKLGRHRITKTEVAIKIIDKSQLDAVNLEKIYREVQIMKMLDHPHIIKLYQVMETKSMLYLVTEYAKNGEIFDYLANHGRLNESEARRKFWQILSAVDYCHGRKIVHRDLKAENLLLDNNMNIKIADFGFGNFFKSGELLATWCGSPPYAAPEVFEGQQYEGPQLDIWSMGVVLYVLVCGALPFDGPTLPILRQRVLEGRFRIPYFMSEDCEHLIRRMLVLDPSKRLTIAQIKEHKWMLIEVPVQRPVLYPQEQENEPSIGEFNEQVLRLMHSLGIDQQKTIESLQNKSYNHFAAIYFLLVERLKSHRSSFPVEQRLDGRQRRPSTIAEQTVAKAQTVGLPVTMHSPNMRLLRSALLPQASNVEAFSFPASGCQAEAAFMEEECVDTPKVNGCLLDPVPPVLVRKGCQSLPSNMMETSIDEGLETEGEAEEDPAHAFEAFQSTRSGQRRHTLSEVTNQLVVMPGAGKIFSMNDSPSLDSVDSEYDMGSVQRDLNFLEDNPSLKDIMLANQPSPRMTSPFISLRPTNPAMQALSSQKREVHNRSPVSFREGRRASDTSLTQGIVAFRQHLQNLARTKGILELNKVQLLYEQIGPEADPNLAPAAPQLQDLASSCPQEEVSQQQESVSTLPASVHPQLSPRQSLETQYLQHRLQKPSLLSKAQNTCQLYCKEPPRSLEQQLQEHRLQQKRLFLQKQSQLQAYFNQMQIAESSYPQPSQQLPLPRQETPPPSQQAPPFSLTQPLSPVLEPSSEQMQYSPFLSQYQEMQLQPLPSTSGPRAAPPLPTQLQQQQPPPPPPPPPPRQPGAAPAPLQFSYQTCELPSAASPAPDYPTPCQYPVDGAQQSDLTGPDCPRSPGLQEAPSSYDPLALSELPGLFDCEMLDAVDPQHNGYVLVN
Source text: as §1, §2

CLK1 = molecular target: T4, CLK1 (Homo sapiens, UniProt P49759); assay: Phosphorylation assay ([γ-32P]-ATP, P81 paper), CLK1
T4 construct: purchased SignalChem
T4 sequence (P49759 whole entry): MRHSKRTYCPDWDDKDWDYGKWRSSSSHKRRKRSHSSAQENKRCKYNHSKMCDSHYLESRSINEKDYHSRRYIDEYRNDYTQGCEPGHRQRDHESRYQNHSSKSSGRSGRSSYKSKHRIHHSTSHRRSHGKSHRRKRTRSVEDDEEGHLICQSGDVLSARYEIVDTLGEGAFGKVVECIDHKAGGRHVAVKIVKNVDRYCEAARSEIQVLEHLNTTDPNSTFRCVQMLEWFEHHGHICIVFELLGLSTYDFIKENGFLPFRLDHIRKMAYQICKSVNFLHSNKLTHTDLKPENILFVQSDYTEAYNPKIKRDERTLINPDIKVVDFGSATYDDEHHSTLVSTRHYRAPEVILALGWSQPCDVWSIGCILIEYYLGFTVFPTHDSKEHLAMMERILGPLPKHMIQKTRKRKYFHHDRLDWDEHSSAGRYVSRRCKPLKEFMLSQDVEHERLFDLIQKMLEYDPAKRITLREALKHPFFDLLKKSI
Source text: as §1, §2

CLK2 = molecular target: T5, CLK2 (Homo sapiens, UniProt P49760); assay: Phosphorylation assay ([γ-32P]-ATP, P81 paper), CLK2
T5 construct: purchased SignalChem
T5 sequence (P49760 whole entry): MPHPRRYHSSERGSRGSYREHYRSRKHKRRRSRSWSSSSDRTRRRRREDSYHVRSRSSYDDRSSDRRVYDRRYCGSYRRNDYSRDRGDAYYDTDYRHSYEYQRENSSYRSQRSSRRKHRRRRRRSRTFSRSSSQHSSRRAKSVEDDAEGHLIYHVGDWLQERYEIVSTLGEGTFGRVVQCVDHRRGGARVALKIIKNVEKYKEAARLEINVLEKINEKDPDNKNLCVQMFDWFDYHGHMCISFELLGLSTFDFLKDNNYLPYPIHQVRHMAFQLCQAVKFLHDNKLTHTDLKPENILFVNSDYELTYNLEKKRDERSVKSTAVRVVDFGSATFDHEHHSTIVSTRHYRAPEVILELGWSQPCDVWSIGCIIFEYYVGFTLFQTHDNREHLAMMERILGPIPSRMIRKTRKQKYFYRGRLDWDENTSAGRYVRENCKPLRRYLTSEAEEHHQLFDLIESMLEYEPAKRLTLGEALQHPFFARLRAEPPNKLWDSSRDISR
Source text: as §1, §2

SMILES | IC50 (NUAK1) [µM] | IC50 (NUAK2) [µM] | IC50 (SIK2) [µM] | IC50 (CLK1) [µM] | IC50 (CLK2) [µM]
CN1Cc2cnc(Nc3ccn(C4CCNCC4)n3)cc2N(C)c2ccccc21 [Compound 24, 5,10-dimethyl-N-(1-(piperidin-4-yl)-1H-pyrazol-3-yl)-10,11-dihydro-5H-benzo[b]pyrido[4,3-e][1,4]diazepin-3-amine] | 1.3 | 7 | 0.69 | > 50 | 9.5
CN1Cc2ccccc2N(C)c2cc(Nc3ccn(C4CCNCC4)n3)ncc21 [Compound 14, 5,11-dimethyl-N-(1-(piperidin-4-yl)-1H-pyrazol-3-yl)-10,11-dihydro-5H-benzo[e]pyrido[3,4-b][1,4]diazepin-3-amine] | 1.3 | 4.6 | 18.6 | 2.7 | 1.5
CN1C(=O)c2ccccc2N(C)c2cc(Nc3ccn(C4CCNCC4)n3)ncc21 [Compound 30, 5,11-dimethyl-3-((1-(piperidin-4-yl)-H-pyrazol-3-yl)amino)-5,11-dihydro-10H-benzo[e]pyrido[3,4-b][1,4]diazepin-10-one TFA Salt] | 0.13 | 0.34 | 1.5 | 57.8 | 33
